In data set [1] the test system is active oxygens generated by PMA-stimulated polymorphonuclear leukocytes (PMN). Briefly: Active oxygen scavenging activity, PMN-PMA system (CLA chemiluminescence). In kind it is cell-based, human (healthy adult). The note with it: 37° C., approximately 10 minutes. The method, then:
Venous blood (10 ml) was taken from a healthy adult, and polymorphonuclear leukocytes (abbreviated to PMN) were isolated therefrom. The leukocytes were suspended in HBSS (Hanks' balanced salt solution) to approximately 1×10^6 cells/ml. 2-Methyl-6-phenyl-3,7-dihydroimidazo-(1,2-a)-pyrazin-3-on (hereinafter referred to as CLA) as a chemiluminescent compound, that is, a compound which may generate chemiluminescence due to the presence of active oxygens, was dissolved in a phosphate buffered saline (hereinafter referred to as PBS) to the concentration of 50 μM. Phorbol myristate acetate (abbreviated to PMA) as a polymorphonuclear leukocyte stimulating agent, that is, a compound which may generate active oxygens by stimulating polymorphonuclear leukocytes, was dissolved in PBS to the concentration of 20 μg/ml. The PMN suspension, the CLA solution, and the PMA solution were cooled with ice for storage until use for measurement.
6-Formyl-pterin as the active ingredient of the active oxygen scavenger according to the present invention was dissolved in PBS to the concentrations of 100 μM, 250 μM, or 500 μM, and then warmed to 37° C. before measurement. PBS as a control was also warmed to 37° C. before measurement.
To polymorphonuclear leukocytes isolated from 2 ml of the PMN suspension by centrifugation, the 6-formyl-pterin solutions of various concentrations or PBS were added to adjust total volume to 1930 μl. The mixtures were poured into test tubes and warmed at 37° C. for 15 minutes. After adding the CLA solution (50 μl), the mixture was placed in a chemiluminescence reader and the measurement of an amount of chemiluminescence was started. After 1 minute from the beginning of the measurement, the PMA solution (20 μl) was injected into the test tube with a syringe. The measurement was performed at 37° C. for approximately 10 minutes while monitoring every 10 seconds.
FIG. 1 is a graph showing a total chemiluminescence amount obtained by accumulating chemiluminescence amounts measured every 10 seconds.

Data set [2] in a line: Active oxygen scavenging activity, active oxygen derived from potassium superoxide in DMSO (electron spin resonance spectroscopy). The note with it: ESR at 77K, vs no addition. The method, then: Potassium superoxide (KO2) (28 mg) was added to dimethyl sulfoxide (DMSO) (20 ml) to prepare a saturated solution so that active oxygens were generated in DMSO. As a standard substance, 2,2,6,6-tetramethylpiperidine-N-oxide (TEMPO) was used. TEMPO was dissolved in DMSO in the concentrations of 0.1, 0.3, 0.5, 0.7, 1, 1.2, or 1.5 mM. The electron spin resonance signals obtained (measured at 77K) were integrated to prepare a standard curve.

The test system of data set [3] is delayed neuronal death (DND) in the cerebral hippocampus area. Briefly: Suppression of delayed neuronal death in transient cerebral ischemia model gerbils (MAP2 staining of hippocampus). The data set is classed as in vivo, gerbil. The note with it: 50 mM in physiological saline (1 ml) intraperitoneally 30 minutes after resumption of bloodstream, after 1 week. As for the experimental part:
A neck of each gerbil (body weigh=approximately 80 g) under a general anesthesia was incised. Ambilateral carotids were visually ligated with clips to cut off a bloodstream. After 5 minutes, the bloodstream was resumed, and the incision was sutured. After 30 minutes from the resumption of the bloodstream, physiological saline (1 ml) was intraperitoneally administered to a control group of the gerbils, whereas 50 mM of 6-formyl-pterin in physiological saline (1 ml) was intraperitoneally administered to an administering group of the gerbils. Thereafter, gerbils came out from anesthesia and then were bred for 1 week. Then, a brain was extirpated from each gerbil under a general anesthesia. Tissue slices were prepared from the brain and stained with microtubule-associated protein 2 (MAP2) which can specifically stain neurons, to evaluate the degree of delayed neuronal death (DND) in the cerebral hippocampus area.
FIG. 3 is a photomicrograph of a slice of a cerebral hippocampus tissue from a completely normal gerbil which had not encountered hemostasis, FIG. 4 is a photomicrograph of a slice of a cerebral hippocampus tissue from the control group, and FIG. 5 is a photomicrograph of a slice of a cerebral hippocampus tissue from the 6-formyl-pterin-administering group. […]

Data set [4] concerns rats. Briefly: Acute toxicity, intravenous. The data set is classed as in vivo, rat. Particulars: 6 mg/kg intravenously; 10 rats; observed for 3 months. From the text: Acute toxicity of 6-formyl-pterin was examined, using rats.
The conditions of data set [5]: literature; cited from earlier work.
The conditions of data set [6]: background art; cited from earlier work.

Consider three molecules from patent US6162806A, “Active oxygen scavengers containing pterin derivatives” (Artemis, Inc., priority 1996, dated 2000).

In the case of `Nc1nc2ncc(C=O)nc2c(=O)[nH]1` [6-formyl-pterin], the “amount of chemiluminescence, i.e., the amount of active oxygens” value in data set [1] (100 μM, vs PBS control (FIG. 1, curve b)) is recorded as “significantly suppressed”; in data set [1] (250 μM, vs PBS control (FIG. 1, curve c)) it was “almost disappeared”; in data set [1] (500 μM, vs PBS control (FIG. 1, curve d)), “almost disappeared”. The “amount of active oxygens generated from KO2” value is recorded as “almost disappeared” in data set [2] (1 mM 6-formyl-pterin) and “lowered” in data set [2] (from 0.1 mM 6-formyl-pterin). For the same molecule, in data set [3], the delayed neuronal death entry is “suppressed”. In addition, in data set [3] (control: neurons completely dropped), the “state of neurons in cerebral hippocampus tissue slice (FIG. 5)” value was “many neurons were living”. Besides, the “death (acute toxicity)” value in data set [4] was “No death was observed”.

With `Nc1nc2ncc([C@H](O)[C@H](O)CO)nc2c(=O)[nH]1` [NP, 2-amino-4-oxo-6-(D-erythro-1',2',3'-trihydroxypropyl)-pteridine], the “antioxidative activity against active oxygens” value in data set [5] was “antioxidative activity against active oxygens”.

Take `Nc1nc2c(c(=O)[nH]1)NC([C@H](O)[C@H](O)CO)CN2` (some centres unmarked) [NPH4, 5,6,7,8-tetrahydroneopterin]: in data set [5], the “antioxidative activity against active oxygens” value is “potent antioxidative activity”. For the same molecule, the teratogenicity result in data set [6] is listed as “exhibits teratogenicity”.
